Experimental data as given in the NIST ThermoML archive (doi:10.1016/j.jct.2012.01.013).

Assay: xn = mol fraction of the nth substance listed
Conditions: 101 kPa, Liquid; for viscosity: Falling or rolling sphere viscometry; for mass density: Vibrating tube method

CC(=O)[O-].Cn1cc[nH+]c1 [1-methylimidazolium acetate] + CCCCO
Conditions | mass density, 293.15 K [kg/m3] | mass density, 298.15 K [kg/m3] | mass density, 303.15 K [kg/m3] | mass density, 308.15 K [kg/m3] | mass density, 313.15 K [kg/m3] | viscosity, 293.15 K [mPa·s] | viscosity, 298.15 K [mPa·s] | viscosity, 303.15 K [mPa·s] | viscosity, 308.15 K [mPa·s] | viscosity, 313.15 K [mPa·s]
x1 = 0.0506 | 828.66 | 824.7 | 820.7 | 816.68 | 812.62 | – | 2.579 | 2.208 | 1.956 | 1.741
x1 = 0.1008 | 847.12 | 843.04 | 838.93 | 834.78 | 830.61 | 2.905 | 2.607 | 2.251 | 1.997 | 1.781
x1 = 0.1979 | 880.83 | 876.62 | 872.36 | 868.1 | 863.78 | 3.194 | 2.829 | 2.462 | 2.182 | 1.944
x1 = 0.2995 | 913.82 | 909.53 | 905.18 | 900.8 | 896.49 | 3.551 | 3.124 | 2.731 | 2.419 | 2.15
x1 = 0.4002 | 943.73 | 939.37 | 934.99 | 930.59 | 926.17 | 3.934 | 3.431 | 3.011 | 2.661 | 2.367
x1 = 0.4999 | 970.97 | 966.57 | 962.15 | 957.72 | 953.27 | 4.413 | 3.813 | 3.334 | 2.922 | 2.606
x1 = 0.6505 | 1008.21 | 1003.78 | 999.34 | 994.88 | 990.41 | 5.321 | 4.556 | 3.936 | 3.447 | 3.056
x1 = 0.7977 | 1040.65 | 1036.22 | 1031.77 | 1027.33 | 1022.9 | 6.49 | 5.533 | 4.739 | 4.068 | 3.538
x1 = 0.9013 | 1061.34 | 1056.91 | 1052.46 | 1048.01 | 1043.57 | 7.367 | 6.225 | 5.314 | 4.553 | 3.944

CC(=O)[O-].Cn1cc[nH+]c1 [1-methylimidazolium acetate] + CCCO
Conditions | mass density, 293.15 K [kg/m3] | mass density, 298.15 K [kg/m3] | mass density, 303.15 K [kg/m3] | mass density, 308.15 K [kg/m3] | mass density, 313.15 K [kg/m3] | viscosity, 293.15 K [mPa·s] | viscosity, 298.15 K [mPa·s] | viscosity, 303.15 K [mPa·s] | viscosity, 308.15 K [mPa·s] | viscosity, 313.15 K [mPa·s]
x1 = 0.0504 | 827.73 | 823.56 | 819.35 | 815.11 | 810.83 | 2.22 | 1.974 | 1.753 | 1.566 | 1.402
x1 = 0.0999 | 850.08 | 845.8 | 841.47 | 837.11 | 832.72 | 2.359 | 2.088 | 1.855 | 1.656 | 1.485
x1 = 0.2005 | 891.09 | 886.69 | 882.25 | 877.78 | 873.27 | 2.757 | 2.429 | 2.152 | 1.918 | 1.718
x1 = 0.3005 | 926.35 | 921.89 | 917.41 | 912.89 | 908.35 | 3.202 | 2.795 | 2.481 | 2.206 | 1.973
x1 = 0.4013 | 957.27 | 952.8 | 948.29 | 943.76 | 939.2 | 3.698 | 3.231 | 2.851 | 2.517 | 2.25
x1 = 0.5014 | 984.26 | 979.77 | 975.25 | 970.72 | 966.17 | 4.234 | 3.682 | 3.228 | 2.852 | 2.536
x1 = 0.6501 | 1018.37 | 1013.89 | 1009.37 | 1004.85 | 1000.32 | 5.113 | 4.402 | 3.835 | 3.363 | 2.975
x1 = 0.7946 | 1046.51 | 1042.04 | 1037.55 | 1033.05 | 1028.55 | 6.141 | 5.212 | 4.517 | 3.947 | 3.482
x1 = 0.8952 | 1063.47 | 1059.02 | 1054.56 | 1050.08 | 1045.6 | 7.087 | 6.009 | 5.148 | 4.447 | 3.905

CC(=O)[O-].Cn1cc[nH+]c1 [1-methylimidazolium acetate] + CCO
Conditions | mass density, 293.15 K [kg/m3] | mass density, 298.15 K [kg/m3] | mass density, 303.15 K [kg/m3] | mass density, 308.15 K [kg/m3] | mass density, 313.15 K [kg/m3] | viscosity, 293.15 K [mPa·s] | viscosity, 298.15 K [mPa·s] | viscosity, 303.15 K [mPa·s] | viscosity, 308.15 K [mPa·s] | viscosity, 313.15 K [mPa·s]
x1 = 0.0495 | 823.45 | 819.02 | 814.55 | 810.04 | 805.49 | 1.366 | 1.236 | 1.123 | 1.024 | 0.938
x1 = 0.0964 | 851.37 | 846.85 | 842.29 | 837.69 | 833.06 | 1.578 | 1.421 | 1.268 | 1.153 | 1.052
x1 = 0.2004 | 902.14 | 897.55 | 892.91 | 888.25 | 883.55 | 1.995 | 1.789 | 1.612 | 1.458 | 1.325
x1 = 0.2986 | 940.21 | 935.59 | 930.94 | 926.27 | 921.57 | 2.485 | 2.212 | 1.981 | 1.784 | 1.614
x1 = 0.401 | 972.28 | 967.67 | 963.03 | 958.37 | 953.69 | 3.048 | 2.695 | 2.399 | 2.148 | 1.935
x1 = 0.4973 | 997.47 | 992.88 | 988.27 | 983.64 | 978.99 | 3.642 | 3.199 | 2.833 | 2.524 | 2.264
x1 = 0.6499 | 1029.38 | 1024.83 | 1020.26 | 1015.69 | 1011.1 | 4.686 | 4.061 | 3.576 | 3.146 | 2.798
x1 = 0.8003 | 1053.98 | 1049.49 | 1044.97 | 1040.45 | 1035.92 | 5.85 | 5.024 | 4.363 | 3.826 | 3.384
x1 = 0.8941 | 1066.93 | 1062.47 | 1057.99 | 1053.51 | 1049.01 | 6.855 | 5.847 | 5.04 | 4.357 | 3.829
